Test results from EP0511152A2, “Quinoxaline compounds, their preparation and use” (NOVO NORDISK A/S, priority 1991, dated 1992).
Values after ≈ are worked out from the molar mass of the structure shown.

Experiments:
[1] = test system: quisqualic acid stimulated spreading depression in chicken retina; assay: Spreading depression (Test 2); type: cell-based; details: Gallus gallus; concentration producing 50% maximal inhibition of quisqualic acid stimulated spreading depression; chick retina, quisqualate 1 µg/ml, 26°C
Method: (§1) The pharmacological properties of the compounds of the present invention can be illustrated by determining their capability for displacing radioactively labelled 2-amino3-hydroxy-5-methyl-4-isoxazolepropionic acid (AMPA) from the AMPA type receptors.
The antagonism is measured by determining the IC₅₀ value which represents the concentration which produces a 50% maximal inhibition of quisqualic acid stimulated spreading depression in chicken retina.
Spreading depression (Test 2)
Chicks (3-10 days old) were decapitated, the eyes enucleated and sectioned along the equatorial plane. After removal of the anterior chamber and the vitreous body, the posterior chamber of each eye was placed in a small petri dish containing a physiological saline solution (P.S.S.) of the following composition (mM) NaCl (100), KCl (6.0), CaCl₂ (1.0), MgS0₄ (1.0), NaHCO₃ (30), NaH₂PO₄ (1.0), glucose (20).
The solution was saturated with 100% O₂ and maintained at 26°C.
The eyes are initially incubated in normal P.S.S. for 15-30 min. and then transferred to P.S.S. containing KCl (20 mM), NMDLA (30 µg/ml), quisqualate (1 µg/ml), kainate (1 µg/ml), or glycin (200 µg/ml). In these "stimulating solutions" S.D.s start spontaneously usually from the edge of the retina, and can be easily observed by eye. The time taken for an S.D. to start in each eye is measured.
After a further 15 minutes of incubation in normal P.S.S. the eyes are transferred to normal P.S.S. containing the test compound and incubated for 15 minutes. Thereafter the eyes are transferred to a "stimulating solution" containing the same concentration of the test compound. The time taken for an S.D. to start in each eye is again measured. The eyes are then placed back in normal P.S.S. and after 15 minutes the time taken for S.D. to start is again measured, in order to assess the degree of recovery from any drug effects.
An increase in the time taken for S.D. to start of 30 seconds more than the control time is considered 100% inhibition of S.D. The drug effects therefore are expressed as the percentage maximum response obtained for a given dose. The test value can be quoted therefore as the concentration (µg/ml) of test substance which produces a 50% maximal inhibition (IC₅₀).

AMPA type receptors = assay: ³H-AMPA binding (Test 1); details: displacement of 50% of specific binding of ³H-AMPA (5 nM); rat cerebral cortical membrane homogenate, 0°C, 30 min
Method: as §1
The displacement activity of the compounds may be shown by determining the IC₅₀ value which represents the concentration (µg/ml) which causes a displacement of 50% of the specific binding of ³H-AMPA.
500 µl of thawed rat cerebral cortical membrane homogenate in Tris-HCl (30 mM), CaCl₂ (2.5 mM) and KSCN (1OO mM) pH 7.1 were incubated at 0°C for 30 min. with 25 µl ³H-AMPA (5 nM final concentration) and the test compound and buffer. Nonspecific binding was determined by incubation with L-glutamic acid (600 µM final concentration). The binding reaction was terminated by adding 5 ml of ice-cold buffer followed by filtration through Whatman GF/C glass fibre filters and 2x5 ml wash with ice-cold buffer. Bound radioactivity was measured by scintillation counting. IC₅₀ was determined by Hill analysis of at least four concentrations of test compound.

| Structure (SMILES) | IC50 [1] [µg/mL] | Test 1 IC50 (AMPA type receptors) [µg/mL] |
| --- | --- | --- |
| O=c1[nH]c2cc([N+](=O)[O-])c3c(C(F)(F)F)cccc3c2[nH]c1=O [Example 8, 6-Nitro-7-trifluoromethylbenzo[f]quinoxaline-2,3-(1H,4H)-dione] | 1.3 (≈ 4 µM) | 0.55 |
| N#Cc1cc2[nH]c(=O)c(=O)[nH]c2c2ccc(S(N)(=O)=O)cc12 [Example 11, 6-Cyano-8-sulfamoylbenzo[f]quinoxaline-2,3(1H,4H)-dione] | 0.54 (≈ 1.71 µM) | 0.17 |
| NC(=O)c1ccc2c(c1)c([N+](=O)[O-])cc1[nH]c(=O)c(=O)[nH]c12 [Example 14, 8-Carbamoyl-6-nitrobenzo[f]quinoxaline-2,3(1H,4H)-dione] | 0.41 (≈ 1.37 µM) | 0.07 |
| NC(=O)CNS(=O)(=O)c1ccc2c(c1)c([N+](=O)[O-])cc1[nH]c(=O)c(=O)[nH]c12 [Example 21, 8-Carbamoylmethylsulfamoyl-6-nitrobenzo[f]quinoxaline-2,3(1H,4H)-dione] | 1 (≈ 2.54 µM) | 0.16 |
